According to the NIST ThermoML archive (doi:10.1021/je200637v):
Numbers after ± are expanded uncertainties.

Assay: activity coefficient (dimensionless); of the first substance listed, at infinite dilution; xn = mol fraction of the nth substance listed
Conditions: Liquid, Chromatography, x1 = 0

| Compound | activity coefficient (322.85 K) | activity coefficient (332.65 K) | activity coefficient (343.15 K) |
| --- | --- | --- | --- |
| OCC(F)(F)F [2,2,2-trifluoroethanol] + CCCCCCCC[N+](CCCCCCCC)(CCCCCCCC)CCCCCCCC.O=S(=O)([N-]S(=O)(=O)C(F)(F)F)C(F)(F)F | 0.48 ± 0.03 | 0.37 ± 0.03 | 0.36 ± 0.04 |
| C1COCCO1 [1,4-dioxane] + CCCCCCCC[N+](C)(C)C.O=S(=O)([N-]S(=O)(=O)C(F)(F)F)C(F)(F)F | 0.62 ± 0.03 | 0.62 ± 0.03 | 0.61 ± 0.03 |
| c1ccsc1 [thiophene] + CCCC[N+](C)(CCCC)CCCC.O=S(=O)([N-]S(=O)(=O)C(F)(F)F)C(F)(F)F | 0.86 ± 0.03 | 0.88 ± 0.03 | 0.87 ± 0.03 |
| OCC(F)(F)F [2,2,2-trifluoroethanol] + CCCCCCCCCC[N+](C)(C)C.O=S(=O)([N-]S(=O)(=O)C(F)(F)F)C(F)(F)F | 0.46 ± 0.03 | 0.44 ± 0.03 | 0.41 ± 0.03 |
| CC(C)CO [2-methyl-1-propanol] + CCCCCCCC[N+](CCCCCCCC)(CCCCCCCC)CCCCCCCC.O=S(=O)([N-]S(=O)(=O)C(F)(F)F)C(F)(F)F | 1.17 ± 0.04 | 1.09 ± 0.03 | 1 ± 0.03 |
| C=CCCCC [hex-1-ene] + CCCC[N+](C)(CCCC)CCCC.O=S(=O)([N-]S(=O)(=O)C(F)(F)F)C(F)(F)F | 4.31 ± 0.2 | 4.4 ± 0.2 | 4.25 ± 0.19 |
| CCc1ccccc1 [ethylbenzene] + CCCCCCCC[N+](C)(C)C.O=S(=O)([N-]S(=O)(=O)C(F)(F)F)C(F)(F)F | 1.39 ± 0.05 | 1.4 ± 0.05 | 1.38 ± 0.05 |
| CCCCO [butan-1-ol] + CCCC[N+](C)(CCCC)CCCC.O=S(=O)([N-]S(=O)(=O)C(F)(F)F)C(F)(F)F | 2.1 ± 0.1 | 1.89 ± 0.08 | 1.73 ± 0.07 |
| CCC(C)=O [butanone] + CCCCCCCCCC[N+](C)(C)C.O=S(=O)([N-]S(=O)(=O)C(F)(F)F)C(F)(F)F | 0.33 ± 0.04 | 0.32 ± 0.04 | 0.29 ± 0.04 |
| CCCCCCCC [octane] + CCCCCCCC[N+](CCCCCCCC)(CCCCCCCC)CCCCCCCC.O=S(=O)([N-]S(=O)(=O)C(F)(F)F)C(F)(F)F | 1.73 ± 0.07 | 1.71 ± 0.07 | 1.69 ± 0.07 |
| Cc1ccc(C)cc1 [1,4-dimethylbenzene] + CCCC[N+](C)(CCCC)CCCC.O=S(=O)([N-]S(=O)(=O)C(F)(F)F)C(F)(F)F | 1.51 ± 0.06 | 1.62 ± 0.07 | 1.56 ± 0.06 |
| CCC[N+](=O)[O-] [1-nitropropane] + CCCCCCCC[N+](CCCCCCCC)(CCCCCCCC)CCCCCCCC.O=S(=O)([N-]S(=O)(=O)C(F)(F)F)C(F)(F)F | 0.48 ± 0.03 | 0.48 ± 0.03 | 0.47 ± 0.03 |
| c1ccncc1 [pyridine] + CCCCCCCC[N+](C)(C)C.O=S(=O)([N-]S(=O)(=O)C(F)(F)F)C(F)(F)F | 0.45 ± 0.03 | 0.44 ± 0.03 | 0.43 ± 0.03 |
| CCCCCCCCCC [decane] + CCCC[N+](C)(CCCC)CCCC.O=S(=O)([N-]S(=O)(=O)C(F)(F)F)C(F)(F)F | 19.6 ± 0.91 | 19.2 ± 0.89 | 17.8 ± 0.82 |
| CCCO [propan-1-ol] + CCCCCCCCCC[N+](C)(C)C.O=S(=O)([N-]S(=O)(=O)C(F)(F)F)C(F)(F)F | 1.48 ± 0.06 | 1.37 ± 0.05 | 1.21 ± 0.04 |
| c1ccccc1 [benzene] + CCCCCCCC[N+](CCCCCCCC)(CCCCCCCC)CCCCCCCC.O=S(=O)([N-]S(=O)(=O)C(F)(F)F)C(F)(F)F | 0.4 ± 0.03 | 0.41 ± 0.03 | 0.41 ± 0.03 |
| CC(C)CC(C)(C)C [2,2,4-trimethylpentane] + CCCCCCCCCC[N+](C)(C)C.O=S(=O)([N-]S(=O)(=O)C(F)(F)F)C(F)(F)F | 5.41 ± 0.25 | 5.29 ± 0.24 | 4.92 ± 0.22 |
| CC(C)O [propan-2-ol] + CCCCCCCC[N+](C)(C)C.O=S(=O)([N-]S(=O)(=O)C(F)(F)F)C(F)(F)F | 1.63 ± 0.07 | – | 1.32 ± 0.05 |
| c1ccccc1 [benzene] + CCCC[N+](C)(CCCC)CCCC.O=S(=O)([N-]S(=O)(=O)C(F)(F)F)C(F)(F)F | 0.9 ± 0.03 | 0.93 ± 0.03 | 0.92 ± 0.03 |
| CCCC(C)=O [pentan-2-one] + CCCCCCCCCC[N+](C)(C)C.O=S(=O)([N-]S(=O)(=O)C(F)(F)F)C(F)(F)F | 0.44 ± 0.03 | 0.47 ± 0.03 | 0.47 ± 0.03 |
| CC(C)CO [2-methyl-1-propanol] + CCCC[N+](C)(CCCC)CCCC.O=S(=O)([N-]S(=O)(=O)C(F)(F)F)C(F)(F)F | 1.97 ± 0.09 | 1.82 ± 0.08 | 1.64 ± 0.07 |
| ClCCl [dichloromethane] + CCCCCCCC[N+](C)(C)C.O=S(=O)([N-]S(=O)(=O)C(F)(F)F)C(F)(F)F | 0.51 ± 0.03 | 0.53 ± 0.03 | 0.54 ± 0.03 |
